Assay results taken from the supplement of paper PMC10307832.

Compound: CC[C@H](CO)Nc1nc(NCc2ccccc2)c2ncn(C(C)C)c2n1 [Seliciclib]
Test: relative viability (nuclei count vs DMSO), 5 days (fraction); higher = more cells survive
How it was run: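 Viability is treated-well nuclei as a fraction of vehicle-well nuclei, reported as the median across plates. Before counting, lung cancer cell lines were kept overnight at 37 °C in 1536-well plates, pinned with five √10-spaced library-drug doses on vehicle-anchored plates, and left 5 days without medium change, then fixed, permeabilised and Hoechst-stained in one step, imaged at 4× and counted by MetaXpress. A plate passed only if control CV was below 25% and at least one doubling occurred.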

| Cell Line | relative viability (0.08 µM) | relative viability (0.253 µM) | relative viability (0.8 µM) | relative viability (2.53 µM) | relative viability (8 µM) |
| --- | --- | --- | --- | --- | --- |
| 201T | 0.982 | 1.06 | 0.959 | 0.845 | 0.883 |
| A-427 | 1.03 | 1.02 | 1.02 | 0.883 | 0.967 |
| ABC-1 | 0.995 | 1.12 | 1 | 0.615 | 0.582 |
| BEN | 1.04 | 0.82 | 1.03 | 0.907 | 0.817 |
| CAL-12T | 0.986 | 1.11 | 0.922 | 0.934 | 0.641 |
| COR-L23 | 1.02 | 1.15 | 1.06 | 1.01 | 0.821 |
| COR-L 105 | 0.932 | 1.14 | 0.924 | 0.851 | 0.902 |
| Calu-6 | 0.991 | 1.13 | 1.01 | 1.01 | 0.891 |
| ChaGo-K-1 | 1.05 | 0.995 | 0.923 | 0.935 | 0.912 |
| EKVX | 0.946 | 1.03 | 0.862 | 0.923 | 0.844 |
| EMC-BAC-2 | 0.978 | 0.894 | 1.03 | 0.654 | 0.811 |
| EPLC-272H | 0.982 | 0.876 | 0.863 | 0.863 | 0.844 |
| H3255 | 1.07 | 0.94 | 1.08 | 0.965 | 0.888 |
| HARA | 0.927 | 1.08 | 1.01 | 0.945 | 0.844 |
| HCC-15 | 1.04 | 1.06 | 0.925 | 0.926 | 0.764 |
| HCC-44 | 1 | 1.05 | 1.01 | 0.931 | 0.899 |
| HCC-78 | 1 | 1.05 | 0.91 | 0.703 | 0.733 |
| HCC-366 | 1.01 | 1.06 | 0.998 | 1.03 | 0.938 |
| HCC-827 | 1.04 | 1.07 | 1.01 | 1.05 | 0.907 |
| HOP-62 | 1.04 | 1.1 | 1.08 | 1 | 0.94 |
| IA-LM | 1.01 | 1.1 | 0.919 | 1 | 0.819 |
| LC-2-ad | 1 | 1.14 | 0.973 | 0.846 | 0.888 |
| LCLC-97TM1 | 0.984 | 1 | 0.911 | 0.473 | 0.651 |
| LCLC-103H | 1 | 0.934 | 0.929 | 0.836 | 0.914 |
| LK-2 | 0.99 | 0.737 | 0.966 | 0.759 | 0.69 |

| Cell Line | relative viability (0.08 µM) | relative viability (0.253 µM) | relative viability (0.8 µM) | relative viability (2.53 µM) | relative viability (8 µM) |
| --- | --- | --- | --- | --- | --- |
| LOU-NH91 | 0.789 | 0.916 | 0.919 | 0.85 | 0.723 |
| LU99A | 0.962 | 0.836 | 0.953 | 0.69 | 0.775 |
| LXF-289 | 0.983 | 1.2 | 0.972 | 1.02 | 0.91 |
| NCI-H23 | 1.01 | 0.81 | 0.991 | 0.449 | 0.565 |
| NCI-H322M | 0.932 | 1.09 | 0.798 | 0.799 | 0.753 |
| NCI-H358 | 0.932 | 0.922 | 0.785 | 0.621 | 0.633 |
| NCI-H441 | 1.07 | 1.01 | 1.06 | 0.783 | 0.566 |
| NCI-H460 | 0.952 | 1.13 | 0.996 | 1.04 | 0.889 |
| NCI-H520 | 0.918 | – | 0.968 | 1.12 | 0.843 |
| NCI-H522 | 0.944 | 0.94 | 1.05 | 0.847 | 0.727 |
| NCI-H596 | 1.01 | – | 0.948 | 0.991 | 0.872 |
| NCI-H647 | 0.971 | 0.836 | 1.03 | 0.939 | 0.754 |
| NCI-H650 | 0.942 | 0.892 | 1.24 | 0.591 | 0.831 |
| NCI-H661 | 0.964 | 1.02 | 0.966 | 0.916 | 0.756 |
| NCI-H727 | 0.85 | 0.891 | 0.8 | 0.796 | 0.75 |
| NCI-H838 | 0.945 | 0.956 | 0.944 | 0.926 | 0.805 |
| NCI-H1355 | 0.977 | 0.959 | 0.89 | 0.905 | 0.959 |
| NCI-H1395 | 0.978 | 0.725 | 0.857 | 0.789 | 0.94 |
| NCI-H1437 | 0.965 | 1.12 | 0.968 | 0.95 | 0.872 |
| NCI-H1563 | 1.03 | 0.872 | 1.06 | 0.833 | 0.897 |
| NCI-H1650 | 0.926 | 1.1 | 0.95 | 0.824 | 0.663 |
| NCI-H1651 | 1.01 | 0.974 | 0.958 | 0.895 | 0.906 |
| NCI-H1666 | 0.955 | 1.13 | 1.01 | 0.866 | 0.829 |
| NCI-H1703 | 0.947 | 0.905 | 1.04 | 0.951 | 0.965 |
| NCI-H1734 | 1.02 | 0.802 | 1.04 | 0.812 | 0.741 |

| Cell Line | relative viability (0.08 µM) | relative viability (0.253 µM) | relative viability (0.8 µM) | relative viability (2.53 µM) | relative viability (8 µM) |
| --- | --- | --- | --- | --- | --- |
| NCI-H1755 | 1.01 | 0.995 | 0.951 | 0.99 | 0.989 |
| NCI-H1792 | 0.938 | 0.939 | 0.944 | – | 0.791 |
| NCI-H1793 | 0.86 | 0.771 | 0.785 | 0.859 | 0.764 |
| NCI-H1915 | 0.982 | 1.02 | 0.956 | 0.933 | 0.856 |
| NCI-H1944 | 0.983 | 0.947 | 0.898 | 0.73 | 0.707 |
| NCI-H1975 | 0.949 | 0.822 | 0.993 | 0.8 | 0.843 |
| NCI-H1993 | 0.979 | 0.761 | 0.884 | 0.723 | 0.633 |
| NCI-H2009 | 1.03 | 1.16 | 1.03 | 0.996 | 0.994 |
| NCI-H2023 | 0.989 | 0.956 | 0.964 | 0.857 | 0.725 |
| NCI-H2085 | 1.01 | 1.04 | 1.01 | 0.961 | 0.873 |
| NCI-H2087 | 1.03 | 1.08 | 0.956 | 0.836 | 0.791 |
| NCI-H2126 | 0.965 | 0.931 | 0.961 | 0.663 | 0.829 |
| NCI-H2170 | 0.93 | 0.697 | 0.897 | 0.997 | 0.946 |
| NCI-H2228 | 0.974 | 0.88 | 1.01 | 0.923 | 0.753 |
| NCI-H2347 | 0.982 | 1.08 | 0.936 | 0.994 | 0.95 |
| NCI-H2405 | 0.919 | 1.02 | 0.976 | 0.804 | 0.872 |
| NCI-H3122 | 0.994 | 0.947 | 0.883 | 0.983 | 0.894 |
| PC-3 [JPC-3] | 1.03 | 1.08 | 0.994 | 0.928 | 0.913 |
| PC-14 | 0.995 | 1.03 | 1.02 | 0.987 | 0.859 |
| RERF-LC-KJ | 0.935 | 0.903 | 0.96 | 0.985 | 0.878 |
| SK-LU-1 | 1.03 | 1.05 | 1.07 | 0.975 | 0.782 |
| SK-MES-1 | 0.999 | 1.03 | 0.942 | 1 | 0.857 |
| SW 900 | 0.9 | 0.994 | 1.09 | 0.744 | 0.668 |
| SW 1573 | 1.03 | 0.989 | 0.888 | 0.913 | 0.757 |
| UMC-11 | 0.974 | 0.872 | 1.03 | 0.926 | 0.824 |
